According to patent publication EP1311531B1, “STEROID DERIVED ANTIBIOTICS” (Brigham Young University, priority 2000, dated 2002):
Converted amounts (≈) assume the structure as drawn. Where two headings read alike, the source gives them in different places. Values belong to the compound of their own block, whether it stands above or below them.

What was measured:
[1] = test system: Escherichia coli ATCC 25922; assay: MIC and MBC measurement; type: cell-based; conditions: Escherichia coli; for MIC: read-out: MIC
Source text: (§1) General: Microorganisms. Reference strains were purchased from the American Type Culture Collection (Rockville, MD) or Bactrol disks from Difeo Laboratories (Detroit, MI). The following specific ATCC strains were used: 10798 Escherichia coli, 25922 Escherichia coli, 13883 Klebsiella pneumoniae, 27853 Pseudomonas aeruginosa, 14028 Salmonella typhimurium, 29212 Enterococcus faecalis, 25923 Staphylococcus aureus, 19615 Streptococcus pyogenes, and 90028 Candida albicans. Bacterial strains were maintained on Mueller-Hinton agar plates, and Candida albicans was maintained on Sabouraud Dextrose agar plates.
(§2) Tryptic soy broth (TSB) was made by dissolving 27.5 grams of tryptic soy broth without dextrose (DIFCO Laboratories) in 1 liter of deionized water and sterilizing at 121 °C for 15 minutes. Solid agar (TSA) plates were made by dissolving 6.4 grams of tryptic soy broth and 12 grams of agar (purified grade, Fischer Scientific) in 800 mL of deionized water and sterilizing at 121 °C for 20 minutes. Aliquots (20 mL) of the homogeneous solution were then poured in sterile plastic petri dishes (100 x 15 mm, Fisher Scientific). Solutions of compounds were made by dissolving the HCl salt of the respective compound into an appropriate amount of deionized and sterilized water followed by microfiltration.
(§3) Aliquots of 1 mL of the suspension were added to test tubes containing 1 mL TSB and incrementally varied concentrations of cholic acid derivatives and/or erythromycin or novobiocin. In the sensitization experiments, erythromycin or novobiocin were added 15 minutes later than the cholic acid derivatives. The samples were subjected to stationary incubation at 37°C for 24 hours. Sample turbidity was determined by measuring absorption at 760 nm (HP 8453 UV-Visible Chemstation, Hewlett Packard). Additionally, an alliquot from each of the samples showing no measurable turbidity was subcultured on TSA plates (alliquots were diluted to provide fewer than 300 CFU). Colonies that grew on the subculture after overnight incubation were counted and the number of CFU/mL in the samples were calculated. The calculated values were compared to the number of CFU/mL in the original inoculum. […]

[2] = test system: Staphylococcus aureus ATCC 25923; assay: MIC and MBC measurement; type: cell-based; conditions: Staphylococcus aureus, ATCC25923; Table 16 (MIC^a); S. aureus (ATTC 25923); read-out: MIC
Source text: as §1, §2, §3

[3] = Minimum hemolytic concentration (MHC); type: cell-based; conditions: Table 16
Protocol: Minimum inhibition concentrations (MIC) and minimum hemolytic concentrations (MHC) were measured as described in Li et al., Antimicrob. Agents. Chemother., 1999, 43, 1347. […]

[4] = test system: Escherichia coli ATCC 25922; assay: Sensitization to erythromycin, novobiocin or rifampicin (permeabilization, FIC); conditions: for c: concentration of the compounds required to lower the MIC of erythromycin from 30 to 1 µg/mL: Table 16, with E. coli
Protocol: FICs can be performed by checkerboard titrations of compounds in one dimension of a microtiter plate, and of antibiotics in the other dimension, for example. The FIC is calculated by looking at the impact of one antibiotic on the MIC of the other and vice versa. […] As used herein, FIC can be determined as follows: FIC = (MIC(compound in combination))/(MIC(compound alone)) + (MIC(antibiotic in combination))/(MIC(antibiotic alone)) [formula]

[5] = Stability (half-lives) in phosphate buffer, decomposition observed via HPLC; type: physicochemical; conditions: 50 mM phosphate buffer, room temperature; for stabilities (half-lives) pH 2.0: pH 2.0, approximately 10 mM; for stabilities (half-lives) pH 7.0: pH 7.0, approximately 10 mM; for stabilities (half-lives) pH 12.0: pH 12.0, approximately 10 mM
Protocol: Compounds 352 - 354 were dissolved in 50 mM phosphate buffered water (pH 2.0, 7.0 or 12.0) at approximately 10 mM concentrations. […] These compounds were used since they contain a chromophore that facilitated monitoring of decomposition by absorption methods common in the HPLC apparatus used.

Gram-negative bacteria = assay: MIC and permeabilization measurements, strain not stated (Table 14, Fig. 5)
E. coli (ATCC 10798) [6] = assay: MIC and MBC measurement; type: cell-based, Escherichia coli; conditions: Escherichia coli, ATCC10798, Table 1, E. coli (ATCC 10798)
Protocol: (§4) General: Microorganisms. Reference strains were purchased from the American Type Culture Collection (Rockville, MD) or Bactrol disks from Difeo Laboratories (Detroit, MI). […] Bacterial strains were maintained on Mueller-Hinton agar plates, and Candida albicans was maintained on Sabouraud Dextrose agar plates.
(§5) Aliquots (20 mL) of the homogeneous solution were then poured in sterile plastic petri dishes (100 x 15 mm, Fisher Scientific). Solutions of compounds were made by dissolving the HCl salt of the respective compound into an appropriate amount of deionized and sterilized water followed by microfiltration.
(§6) Aliquots of 1 mL of the suspension were added to test tubes containing 1 mL TSB and incrementally varied concentrations of cholic acid derivatives and/or erythromycin or novobiocin. […] Additionally, an alliquot from each of the samples showing no measurable turbidity was subcultured on TSA plates (alliquots were diluted to provide fewer than 300 CFU). Colonies that grew on the subculture after overnight incubation were counted and the number of CFU/mL in the samples were calculated. The calculated values were compared to the number of CFU/mL in the original inoculum.

E. coli (ATCC 10798) [7] = assay: Sensitization to erythromycin or novobiocin (outer membrane permeabilization, FIC); type: cell-based, Escherichia coli; conditions: E. coli (ATCC 10798); for MBC: Escherichia coli
Protocol: (§7) FICs can be performed by checkerboard titrations of compounds in one dimension of a microtiter plate, and of antibiotics in the other dimension, for example. The FIC is calculated by looking at the impact of one antibiotic on the MIC of the other and vice versa. […] Preferably, an FIC of less than 0.5 is obtained for synergism. As used herein, FIC can be determined as follows: FIC = (MIC(compound in combination))/(MIC(compound alone)) + (MIC(antibiotic in combination))/(MIC(antibiotic alone)) [formula]
(§8) Aliquots of 1 mL of the suspension were added to test tubes containing 1 mL TSB and incrementally varied concentrations of cholic acid derivatives and/or erythromycin or novobiocin. In the sensitization experiments, erythromycin or novobiocin were added 15 minutes later than the cholic acid derivatives. The samples were subjected to stationary incubation at 37°C for 24 hours. Sample turbidity was determined by measuring absorption at 760 nm (HP 8453 UV-Visible Chemstation, Hewlett Packard). Additionally, an alliquot from each of the samples showing no measurable turbidity was subcultured on TSA plates (alliquots were diluted to provide fewer than 300 CFU). Colonies that grew on the subculture after overnight incubation were counted and the number of CFU/mL in the samples were calculated. The calculated values were compared to the number of CFU/mL in the original inoculum.
They were also tested for the ability to permeabilize the outer membrane of Gram-negative bacteria, causing sensitization to hydrophobic antibiotics that cannot cross the outer membrane. The permeabilization of the outer membrane was measured using erythromycin and novobiocin.

[8] = test system: Pseudomonas aeruginosa ATCC 27853; assay: MIC and MBC measurement; type: cell-based; conditions: ATCC27853, Table 6, P. aureginosa (ATCC 27853)
Protocol: as §4, §5, §6

[9] = test system: Pseudomonas aeruginosa ATCC 27853; assay: Sensitization to erythromycin, novobiocin or rifampicin (permeabilization, FIC); type: cell-based; conditions: P. aureginosa (ATCC 27853)
Protocol: as §7, §8
Concentrations of 0.5, 1.0 or 3.0 µg/mL of these antibiotics were used, and the concentrations of the cholic acid derivatives required to inhibit bacterial growth of Gram-negative strains were determined.

[10] = ATCC25922, Table 16 (MIC^b), E. coli (ATTC 25922)
[11] = ATCC25922, Table 4, E. coli (ATCC 25922)

MIC [1, 10]: 60 µg/mL
MIC [2]: 15 µg/mL
SMILES: C[C@H](CCC(=O)OCC[N+](C)(C)C)[C@H]1CC[C@H]2[C@@H]3[C@H](OC(=O)CN)C[C@@H]4C[C@H](OC(=O)CN)CC[C@]4(C)[C@H]3C[C@H](OC(=O)CN)[C@]12C [Compound 324]
MHC [3]: >200 µg/mL
c: concentration of the compounds required to lower the MIC of erythromycin from 30 to 1 µg/mL [4]: 10 µg/mL

stabilities (half-lives) pH 2.0 [5]: 33 days
stabilities (half-lives) pH 7.0 [5]: 12 days
stabilities (half-lives) pH 12.0 [5]: <30 minutes
SMILES: C[C@H](CCCN(C)Cc1ccccc1)[C@H]1CC[C@H]2[C@@H]3[C@H](OC(=O)CCCN)C[C@@H]4C[C@H](OC(=O)CCCN)CC[C@]4(C)[C@H]3C[C@H](OC(=O)CCCN)[C@]12C [Compound 354]

MIC [1, 10]: 1 µg/mL (≈ 1.45 µM)
MIC [2]: 1.8 µg/mL (≈ 2.6 µM)
SMILES: CCCCCCCCOC(=O)CC[C@@H](C)[C@H]1CC[C@H]2[C@@H]3[C@H](OC(=O)CN)C[C@@H]4C[C@H](OC(=O)CN)CC[C@]4(C)[C@H]3C[C@H](OC(=O)CN)[C@]12C [Compound 341]
MHC [3]: 4.0 µg/mL
c: concentration of the compounds required to lower the MIC of erythromycin from 30 to 1 µg/mL [4]: 0.7 µg/mL

stabilities (half-lives) pH 2.0 [5]: >37 days
stabilities (half-lives) pH 7.0 [5]: 37 days
stabilities (half-lives) pH 12.0 [5]: <30 minutes
SMILES: C[C@H](CCCN(C)Cc1ccccc1)[C@H]1CC[C@H]2[C@@H]3[C@H](OC(=O)CCN)C[C@@H]4C[C@H](OC(=O)CCN)CC[C@]4(C)[C@H]3C[C@H](OC(=O)CCN)[C@]12C [Compound 353]

MIC (Gram-negative bacteria; in words, text on Fig. 5): relatively high
SMILES: C[C@H](CCCN)[C@H]1CC[C@H]2[C@@H]3[C@H](OCCCN)C[C@@H]4C[C@H](OCCCN)CC[C@]4(C)[C@H]3C[C@H](OCCCN)[C@]12C [Compound 135]
MBC (Gram-negative bacteria; in words, text on Fig. 5): relatively high

MIC (Gram-negative bacteria; Table 14): 85 µg/mL (≈ 110 µM)
a: concentration of cholic acid derivatives required to lower MIC of erythromycin to 1 µg/ML (Gram-negative bacteria; Table 14): 45 µg/mL
b: concentration of cholic acid derivatives required to lower MIC of novobiocin to 1 µg/ML (Gram-negative bacteria; Table 14): 60 µg/mL
SMILES: CC(CCCO)C1CCC2C3C(NC(=O)C(N)CCCCN)CC4CC(NC(=O)C(N)CCCCN)CCC4(C)C3CC(NC(=O)C(N)CCCCN)C12C (stereo not drawn) [Compound 209c]

MIC (E. coli (ATCC 10798) [6]; read-out: MIC): 5 µg/mL (≈ 6.64 µM)
MIC [1, 11]: 6 µg/mL (≈ 7.97 µM)
MIC [8]: 15 µg/mL (≈ 19.9 µM)
SMILES: C[C@H](CCCN(C)Cc1ccccc1)[C@H]1CC[C@H]2[C@@H]3[C@H](OCCNC(=N)N)C[C@@H]4C[C@H](OCCNC(=N)N)CC[C@]4(C)[C@H]3C[C@H](OCCNC(=N)N)[C@]12C [Compound 4]
MBC (E. coli (ATCC 10798) [6]; read-out: MBC): 10 µg/mL (≈ 13.3 µM)
MBC (E. coli (ATCC 10798) [7]; ATCC10798, Table 2, with erythromycin): 10 µg/mL
MBC (E. coli (ATCC 10798) [7]; ATCC10798, Table 3, with novobiocin): 10 µg/mL
concentration required to lower the MIC of erythromycin from 70 µg/mL to 1 µg/mL (E. coli (ATCC 10798) [7]; Table 2, with erythromycin): 1.5 µg/mL
MBC [1, 11]: 9 µg/mL (≈ 12 µM)
MBC [8]: 40 µg/mL (≈ 53.1 µM)
MBC ([9]; Pseudomonas aeruginosa, ATCC27853, Table 7, with erythromycin): 40 µg/mL
concentration required to lower the MIC of erythromycin from 240 µg/mL to 5 µg/mL ([9]; Table 7, with erythromycin): 5 µg/mL
concentration required to lower the MIC of novobiocin from >500 µg/mL to 1 µg/mL ([9]; Table 8, with novobiocin): 6 µg/mL
MBC ([4]; Escherichia coli, ATCC25922): 5 µg/mL
concentration required to lower the MIC of erythromycin from 60 µg/mL to 1 µg/mL ([4]; Table 5, E. coli (ATCC 25922), with erythromycin): 1 µg/mL
